This is an account of results in US20240293472A1, “Bee Product Extracts, Methods of Production, and Uses Thereof” (Quantum Technologies Limited, priority 2020, published 2024).

The assay addresses T1, HDAC1 (Homo sapiens, UniProt Q13547).
T1 construct: purchased Huntingtree Associates Ltd
Put plainly: Epigenase HDAC Activity/Inhibition Direct Assay Kit (Colorimetric). The conditions noted are these: FIG. 20. The class given is biochemical.

T1 sequence (Q13547 whole entry): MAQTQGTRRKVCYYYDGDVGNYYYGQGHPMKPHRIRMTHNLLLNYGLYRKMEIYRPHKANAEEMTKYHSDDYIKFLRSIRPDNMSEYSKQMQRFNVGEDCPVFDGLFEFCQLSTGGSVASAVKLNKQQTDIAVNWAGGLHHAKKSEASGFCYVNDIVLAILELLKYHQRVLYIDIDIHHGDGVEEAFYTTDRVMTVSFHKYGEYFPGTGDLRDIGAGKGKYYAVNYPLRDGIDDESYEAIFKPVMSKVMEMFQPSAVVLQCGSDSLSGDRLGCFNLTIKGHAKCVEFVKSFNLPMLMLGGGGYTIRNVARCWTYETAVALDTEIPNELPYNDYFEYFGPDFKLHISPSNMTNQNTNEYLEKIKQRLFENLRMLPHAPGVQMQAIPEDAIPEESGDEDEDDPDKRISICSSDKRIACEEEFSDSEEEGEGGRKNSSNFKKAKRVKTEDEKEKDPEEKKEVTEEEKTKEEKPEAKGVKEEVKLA

Consider `CC(=O)C=O` [MGO, Methylglyoxal], for which the HDAC inhibition result is “dose response inhibition”.
